Test system: Caco-2 cell monolayers
Details: pH 7.4, range over 12 inter-day experiments

## CC(C)NCC(O)COc1cccc2ccccc12 (centres unmarked) [Propranolol]
A to B
  Peff (×E-6 cm/sec) in pH 7.4 Caco-2, A B, Range: 18.50-36.80 ×E-6 cm/sec
B to A
  Peff (×E-6 cm/sec) in pH 7.4 Caco-2, B A, Range: 16.30-31.40 ×E-6 cm/sec

— patent US9868722B2, “Monocyclic pyrimidine/pyridine compounds as inhibitors of P97 complex” (Cleave Biosciences, Inc., priority 2013, dated 2018)
